Results published in US6440987B1, “Antipruritic” (Toray Industries, Inc., priority 1996, dated 2002).

Experiments:
[1] = tested on: guinea pig ileum; assay: Assay of opioid activity by guinea pig ileum assay (electrically evoked contraction of longitudinal muscle strip); conditions: for IC50: Cavia porcellus, inhibition of electrically evoked contraction, absence of antagonist; for Ke (nM) Naloxone (100 nM): naloxone as μ antagonist; for Ke (nM) nor-BNI (5 nM): nor-BNI as κ antagonist
Description: Assay of opioid activity by Guinea pig ileum assay.
Male Hartley guinea pigs were used. The guinea pig was killed with a blow, and the ileum excised; the lumen of ileum was washed with a nutritious fluid; and only a piece of longitudinal muscle was stripped. This longitudinal muscle strip was suspended in a Magnus tube filled with Krebes-Henseleit solution (NaCl 135 mM; KCl 4.8 mM; CaCl2 3.4 mM; KH2PO4 1.2 mM; NaHCO3 8.3 mM; MgSO4, 2.5 mM; and glucose 11 mM) kept at 37° C., and gassed with a mixture of 5% carbon dioxide and 95% oxygen. Electrical stimulation was delivered at a rate of 0.1 Hz with 0.5 ms pulses through ring-shaped platinum electrodes placed at upper and lower levels in a Magnus tube. Tissue contractions were recorded via an isometric transducer on a polygraph.
(§1) The test drug was cumulatively added until it inhibited over 50% the contraction of specimen evoked by the electrical stimulation, in the presence or absence of naloxone as a μ antagonist, or nor-BNI as a κ antagonist, and IC50s were calculated for respective experimental conditions. From the difference in drug efficacy in the presence and absence of the antagonist, Ke values were calculated on the basis of following equations.
(§2) Ke=[Concentration of antagonist added]/(Dose ratio−1)
Dose ratio=IC50 in the presence of antagonist/IC50 in the absence of antagonist

[2] = tested on: mouse vas deferens; assay: Assay of opioid activity by mouse vas deferens assay (electrically evoked contraction); conditions: for Ke (nM) NTI (10 nM): NTI as δ antagonist; for IC50: inhibition of electrically evoked contraction, absence of antagonist; for Ke (nM) Naloxone (30 nM): naloxone as μ antagonist; for Ke (nM) nor-BNI (10 nM): nor-BNI as κ antagonist
Description: Assay of opioid activity by mouse vas deferens assay
Male ddY mice were used for the experiment. The vas deferens specimen removed from the animal was suspended in a Magnus tube filled with Krebes-Henseleit solution (NaCl […]; KCl 5.9 mM; CaCl2 2.5 mM; NaH2PO4 1.2 mM; NaHCO3 15.3 mM; and glucose 11.5 mM) kept at 37° C., and gassed with a mixture of 5% carbon dioxide and 95% oxygen. Electrical stimulation was delivered at a rate of 0.1 Hz with 1.0 ms pulses through ring-shaped platinum electrodes placed at upper and lower levels in a Magnus tube. Tissue contractions were recorded via an isometric transducer on a polygraph.
as §1, with “test drug” for “The test drug”, “μ antagonist, nor-BNI as” for “μ antagonist, or nor-BNI as”, “κ antagonist, or NTI as a δ antagonist and IC50s” for “κ antagonist, and IC50s”
as §2
IC50 ratio=IC50 in the presence of antagonist/IC50 in the absence of antagonist

[3] = tested on: scratching behavior induced by Compound 48/80; design: species or system ddY mice; conditions: mouse, in vivo, sc
[4] = tested on: itching of erupted lesions of urticaria; assay: Topical application to erupted lesions of urticaria, intensity of itching; type: in vivo, human; design: key to Intensity of itching five minutes after the treatment: itching whose intensity was evaluated as moderate (ranked as “++”); completely eradicated five minutes after the treatment (ranked as “−”); conditions: male adult
Description: An opioid compound selectively acting on a κ receptor, (−)-17-(cyclopropylmethyl)-3,14β-dihydroxy-4,5α-epoxy-6β-[N-methyl-trans-3-(3-furyl)acrylamido]morphinan hyrochloride 7, [drawing 52]
was dissolved in physiological saline, to give an aqueous solution with a concentration of 40 μg/ml. This aqueous solution was topically applied to three erupted lesions of urticaria, on the lower limb of an adult at a dose of 0.2 μg/cm^2.

[5] = tested on: itching due to atopic dermatitis; assay: Topical application to skin lesions of a patient with atopic dermatitis, intensity of itching; type: in vivo, human
Description: The drug solution was applied on five spots with a volume of about 50 μl per 10 cm^2, which was equivalent to a topical dose of 0.2 μg/cm^2. As a comparison, indomethacin cream (having a drug concentration of 7.5 mg/g) was applied at a dose of 75 μg/cm2 in the same manner.

[6] = topical, Compound 7 0.2 μg/cm^2, indomethacin cream 75 μg/cm2, prior to application +++

SMILES	IC50 [1]	Ke (nM) Naloxone (100 nM) [1]	Ke (nM) nor-BNI (5 nM) [1]	Ke (nM) NTI (10 nM) [2]	IC50 [2]	Ke (nM) Naloxone (30 nM) [2]	Ke (nM) nor-BNI (10 nM) [2]	melting point	Inhibition (%) of scratching behavior [3]	other results
COc1cccc(/C=C/C(=O)N(C)[C@@H]2CC[C@@]3(O)[C@H]4Cc5ccc(O)c6c5[C@@]3(CC[N+]4(C)CC3CC3)[C@H]2O6)c1.[I-] (stereo partly drawn) [Compound 2, 17-cyclopropylmethyl-3,14β-dihydroxy-4,5α-epoxy-17-methyl-6β-(N-methyl-3-methoxycinnamamido)morphinanium.iodide]	6.71 nM	98.2 nM	0.54 nM	25 nM	5.9 nM	100 nM	0.45 nM			
Cc1cccc(C#CC(=O)N(C)[C@@H]2CC[C@@]3(O)[C@H]4Cc5ccc(O)c6c5[C@@]3(CC[N+]4([O-])CC3CC3)[C@H]2O6)c1 (stereo partly drawn) [Compound 6, 17-cyclopropylmethyl-4,5α-epoxy-3,14β-dihydroxy-6β-[N-methyl-3-(3-methylphenyl)propyolamido]morphinan-N-oxide]	11.3 nM	75.1 nM	0.89 nM	20 nM	4.6 nM		0.26 nM	192 to 202 °C (dec.)		
CN(C(=O)NCc1ccccc1)[C@H]1CC[C@@]2(O)[C@H]3Cc4ccc(O)c5c4[C@@]2(CCN3CC2CC2)[C@H]1O5.O=C(O)C(O)C(O)C(=O)O [Compound 12, 17-cyclopropylmethyl-3,14β-dihydroxy-4,5α-epoxy-6α-(N-methyl-N-benzylureido)morphinan tartrate]									39%	
CN(C(=O)/C=C/c1ccoc1)[C@@H]1CC[C@@]2(O)[C@H]3Cc4ccc(O)c5c4[C@@]2(CC[N+]3(C)CC2CC2)[C@H]1O5.[I-] (stereo partly drawn) [Compound 1, 17-cyclopropylmethyl-3,14β-dihydroxy-4,5α-epoxy-17-methyl-6β-(N-methyl-trans-3-(3-furyl)acrylamido)morphinanium iodide]	1.94 nM	16.67 nM	0.03 nM	11.23 nM	4.42 nM	14.18 nM	0.17 nM	202.4 to 207.9 °C (dec.)		
COc1cccc(/C=C/C(=O)N(C)[C@@H]2CC[C@@]3(O)[C@H]4Cc5ccc(O)c6c5[C@@]3(CC[N+]4([O-])CC3CC3)[C@H]2O6)c1 (stereo partly drawn) [Compound 4, 17-cyclopropylmethyl-4,5α-epoxy-3,14β-dihydroxy-6β-(N-methyl-3-methoxycinnamamido)morphinan-N-oxide]	4.09 nM	28.7 nM	0.09 nM	11 nM	1.8 nM	50 nM	0.67 nM	234 to 236.8 °C (dec.)		
CN(C(=O)/C=C/c1ccoc1)[C@@H]1CC[C@@]2(O)[C@H]3Cc4ccc(O)c5c4[C@@]2(CC[N+]3([O-])CC2CC2)[C@H]1O5 (stereo partly drawn) [Compound 3, 17-cyclopropylmethyl-4,5α-epoxy-3,14β-dihydroxy-6β-[N-methyl-trans-3-(3-furyl)acrylamido]morphinan-N-oxide]	1.06 nM		0.02 nM		2.14 nM	30.48 nM	0.040 nM	238 to 239.8 °C (dec.)		
CN(C(=O)C#Cc1ccc(C(F)(F)F)cc1)[C@@H]1CC[C@@]2(O)[C@H]3Cc4ccc(O)c5c4[C@@]2(CC[N+]3([O-])CC2CC2)[C@H]1O5 (stereo partly drawn) [Compound 5, 17-cyclopropylmethyl-4,5α-epoxy-3,14β-dihydroxy-6β-[N-methyl-3-(4-trifluoromethylphenyl)propyolamido]morphinan-N-oxide]	1.55 nM	29.5 nM	0.19 nM	5.0 nM	0.59 nM	5.9 nM	0.33 nM	205 to 208 °C (dec.)		
CN(C(=O)Cc1ccc(Cl)c(Cl)c1)C(CN1CCCC1)c1ccccc1.Cl (stereo not drawn) [Compound 20]									62%	
CN(C(=O)/C=C/c1ccoc1)[C@@H]1CC[C@@]2(O)[C@H]3Cc4ccc(O)c5c4[C@@]2(CCN3CC2CC2)[C@H]1O5.Cl [Compound 7, (−)-17-(cyclopropylmethyl)-3,14β-dihydroxy-4,5α-epoxy-6β-[N-methyl-trans-3-(3-furyl)acrylamido]morphinan hyrochloride]										Intensity of itching five minutes after the treatment ([4]; urticaria lesions on lower limb, topical 0.2 μg/cm^2 (40 μg/ml in saline), before treatment “++”): −; Duration of no itching state ([4]; urticaria, topical 0.2 μg/cm^2): about five; Duration of no itching state ([5]; topical 0.2 μg/cm^2): at least three; Relief from itching (in words) ([5]; topical, Compound 7 0.2 μg/cm^2 (in five minutes), indomethacin cream 75 μg/cm2): eradicated itching completely; Intensity of itching 5 minutes after application [5, 6]: −; Intensity of itching 10 minutes after application [5, 6]: −; Intensity of itching 3 hours after application [5, 6]: −
Cl.O=C(C1CCc2cc(Cl)c(Cl)cc21)N1CCSCC1CN1CCCC1 (stereo not drawn) [Compound 21, 3-(1-pyrrolidinylmethyl)-4-[5,6-dichloro-1-indancarbonyl]-tetrahydro-1,4-thiazine hydrochloride]									23%	
